Laboratory results published in PMC4492750, “The discovery of a selective and potent A2a agonist with extended lung retention” (Pharmacology Research & Perspectives, 2015).

How the values were obtained:
[1] = In vivo pharmacokinetics in rats (i.v., oral, intratracheal)
Protocol: Rat PK was determined after an i.v. dose of 0.1μmol/kg (approximately 50μg/kg, 1ml/kg, TEG:H2O 50:50) given via a catheter in vena jugularis. The PK after oral administration was performed at a dose of 6μmol/kg (approximately 3mg/kg, 4ml/kg, 0.5% HPMC) given by gavage. Intratracheal PK was determined at 0.03 to 0.6μmol/kg (17 to 300μg/kg, 1ml/kg, in a vehicle containing sodium chloride (8.5mg/ml), EDTA (0.1mg/ml), citric acid (0.15mg/ml), sodium citrate (0.5mg/ml) and polysorbate 80 (0.2mg/mL) in purified water). The i.t. dose was given to anaesthetized (isofluran) rats, positioned at approximately 30° angle (head up) and the compound was administered in the trachea using a modified metal cannula. Rats were put back in their cages while regaining consciousness. Serial blood sampling of 100 to 200µl was performed after i.v. and p.o. dosing at pre-defined timepoints. Blood was mixed 1:4 with purified water containing heparin (10 to 30U/ml) in order to haemolyse the blood cells, and then placed in a 96-well plate and stored at –70°C until analysed. The dilution factor was accounted for in the data analysis. After i.t. dosing, animals were euthanized with isoflurane or pentobarbital at defined timepoints after dosing, blood samples taken from the vena jugularis or arteria carotis, handled and stored as described above. The rats were bled to drain as much blood as possible from the lungs. The lungs including the trachea were carefully dissected out with all non-relevant tissue removed, placed in pre-weighed vials and weighed. The lung vials were stored at –70°C until analyzed.
Lung tissue was frozen in liquid nitrogen and homogenised using a CryoPrep pneumatic hammer. The homogenisation of the tissue and the extraction of the compound were done in 4ml Ringer solution with an Adaptive Focused Acoustic Instrument. 50µl of the supernatant was transferred to a 96-well plate. All lung, blood and plasma samples were analysed by LC-MS/MS using a selective and sensitive method. Peak areas were used in comparison to those produced by the standard curve to determine parent compound concentrations. Homogenate concentrations were adjusted to account for the sample dilutions to give tissue concentrations.

[2] = test system: LPS-induced TNFα production in rat splenocytes; test: LPS-induced TNFα production in rat mononuclear spleen cells (rTNFα splenocytes); type: cell-based; details: Splenocyte
Protocol: • Human A2a and A2b receptor pharmacology: Chinese hamster ovary CHO-K1 cells stably expressing human A2a and A2b receptors were used to determine substances agonistic potency and intrinsic activity. […] The signal corresponding to adenosine at 100 μmol/L was used to define 100% intrinsic activity. • Human A3 receptor pharmacology: A3 receptor Gi coupling was measured by GTPγ ^35[S] filter assay at serial dilutions of compound using membranes from Perkin-Elmer. The signal corresponding to the maximal response of NECA at 100 μmol/L was set to 100% intrinsic activity. • Lipopolysaccharide (LPS)-induced TNFα production in primary human peripheral blood mononuclear cells (hTNFα PBMC) and rat mononuclears (rTNFα splenocytes): Human PBMC and rat mononuclear spleen cells were incubated with serial dilutions of compound and stimulated with LPS.
Procedures and assays were run in R10 buffer (RPMI 1640 Medium supplemented with GlutaMAX™ and HEPES (GIBCO-BRL), 10% fetal calf serum, penicillin and streptomycin (each 5000IU/ml)). Human PBMC were purified from heparinised blood by Ficoll separation (Ficoll, Amersham Pharmacia Biotech AB, Cat: 17-1440-03, Lot: 312170) and rat mononuclear cells were collected after rat spleen perfusion. Both cell preparations were followed by hypotonic lysis of residual erythrocytes. Serial dilutions of compounds were pre-incubated with 200 000 cells/well (96-well plate) for 45min in 37 °C (190µl). Cells were stimulated by 10µl LPS (final concentration 0.5ng/ml human and 150ng/ml rat; SIGMA Cat: L-4516, Lot: 104K4036) for 18h at 37 °C. TNFα release was measured by ELISA (^TmR&D Systems plates) according to the manufacturer’s instructions in cell free supernatant.

[3] = test system: LPS-induced BAL neutrophils; test: LPS-induced lung inflammation model, neutrophils in BAL fluid; type: in vivo, rat; details: for Reduction of total cells and neutrophilia in BAL fluid: 10 μg/kg i.t.
Protocol: The efficacy of the compound on neutrophils in BAL fluid is expressed as per cent inhibition of the full window (negative veh/veh controls vs. the positive veh/LPS controls): Inhibition (%) of LPS-induced BAL neutrophils by compound 2 was calculated using the following formula: [drawing 1] where A is the average in the group administered with vehicle and challenged with LPS; B is the average in the group administered with vehicle and challenged with saline; and C is the average in the group administered with test compound and challenged with LPS.
Animals in all efficacy studies were dosed intratracheally as described above in a buffered saline vehicle (pH 5) containing sodium chloride (8.5mg/ml), citric acid (0.28mg/ml) and sodium citrate (0.5mg/ml). The compound was dissolved in saline when given intravenously (0.9% NaCl) to the swivelled rats.
[…] Each rat was given LPS from the Pseudomona Aeruginosa bacteria (1µg/rat, 5µg/ml saline, Sigma-Aldrich, Sweden).
24 hours after the LPS challenge, rats were anaesthetized and exsanguinated via a cardiac incision. A tube was inserted and ligated to the trachea. The tube was connected to a syringe with 4ml PBS (without Ca^2+/Mg^2+) and a lavage of the whole lung was performed manually. The BAL fluid was collected individually in polyethylene tubes and kept on ice until further processed.
The BAL fluid was centrifuged and the supernatant separated from the cell pellet that was resuspended in 1.0ml of PBS. The total number of cells and cell differentia was counted in an automated cell counter and haematology analyzer (SYSMEX XT-1800iV, software for the rat BALF).

[4] = test system: blood pressure and heart rate; details: rat, in vivo
From the text: A mixed effect model with fixed effects for time after dose, treatment groups, and number of doses, was set up for the analysis of the blood pressure and HR data (SAS v.9.2). A random intercept was included to allow for individual baseline blood pressures, as well as a random effect on the number of doses. Seven days before initiation of the dosing regimen, 24 rats were anaesthetized (isoflurane) and a small telemetry unit (PA-C10, Data Sciences International, USA) was placed subcutaneously on the left side of the throat with the catheter going into the left carotid artery. […] The compound was given by intratracheal instillation as described above, for 5 consecutive days, and blood pressure and heart rate were continuously recorded, apart from the brief period during compound administration.

Increase of rat lung t½ in comparison with UK-432,097 ([1]; i.t.): 13 fold
Rat blood clearance ([1]; i.v., mean of n = 3): 19 mL/min per kg
half-life ([1]; lung, inhaled or intranasal, rat, intratracheal dosing, n = 2/time point, read-out: Lung t½ (terminal half-life in lung) (converted)): 53 h
Kp at 24 h ([1]; other: intratracheal (i.t.), rat, i.t., ratio of lung concentration 24 h after dose to blood Cmax after same dose, read-out: Lung/blood split): 460
Percentage of dose remaining in lung at 24 h ([1]; rat, single i.t. dose (17 and 20 μmol/kg for compounds 2 and 3 as printed in Fig. 5), 24 h): 28%
bioavailability ([1]; whole blood, 6 umol/kg, rat, oral, mean of n = 3, read-out: Rat oral F (bioavailability)): 0.3%
EC50 ([2]; Rattus norvegicus, read-out: EC50, inhibition of LPS stimulated TNFα release in rat splenocytes): 0.6 nM
IC50 ([2]; LPS-stimulated TNFα release, rat splenocytes, average (SD)): 0.6 nM
Structure (SMILES): CCNC(=O)[C@H]1O[C@@H](n2cnc3c(NC(CC)CC)nc(NCCNC(=O)Nc4cc[n+](C)cc4)nc32)[C@H](O)[C@@H]1O [Compound 2, (2S,3S,4R,5R)-N-ethyl-5-[6-(1-ethylpropylamino)-2-[2-[(1-methylpyridin-1-ium-4-yl)carbamoylamino]ethylamino]purin-9-yl]-3,4-dihydroxy-tetrahydrofuran-2-carboxamide]
Emax ([2]; LPS-stimulated TNFα release, rat splenocytes, average (SD), read-out: rTNFα splenocytes Intrinsic activity): 57.4%
Inhibition of recovered neutrophils in BAL fluid ([3]; 0.1 μg/kg i.t. single dose 24 h prior to LPS): 9%
Inhibition of recovered neutrophils in BAL fluid ([3]; 1 μg/kg i.t. single dose 24 h prior to LPS): 17%
Inhibition of recovered neutrophils in BAL fluid ([3]; 10 μg/kg i.t. for five consecutive days, LPS 24 h after last dose): 53%
Inhibition of recovered neutrophils in BAL fluid ([3]; 10 μg/kg i.t. for three consecutive days, LPS 24 h after last dose): 39%
Inhibition of recovered neutrophils in BAL fluid ([3]; 10 μg/kg i.t. single dose 24 h prior to LPS (n.s., P = 0.086)): 39%
Reduction of total cells and neutrophilia in BAL fluid ([3]; 36 and 24 h pre-treatment before LPS): significant reduction
Reduction of total cells and neutrophilia in BAL fluid ([3]; 12 h pretreatment before LPS): not significant
Maximum inhibition of neutrophil recruitment ([3]; single i.t. dose of 10 μg/kg, rodents, previous dose-response studies): 40–50%
Tachyphylaxis for the HR [4]: did not demonstrate any tachyphylaxis
